SMILES strings stand for the structures. Where only a bound is given, the exact number is not on record here.

This test has as its target T1, full-length human Mineralocorticoid Receptor (MR) (Homo sapiens, UniProt P08235).
T1 construct: host or cells: PathHunter CHO-K1 cells
T1 sequence (P08235 1-984): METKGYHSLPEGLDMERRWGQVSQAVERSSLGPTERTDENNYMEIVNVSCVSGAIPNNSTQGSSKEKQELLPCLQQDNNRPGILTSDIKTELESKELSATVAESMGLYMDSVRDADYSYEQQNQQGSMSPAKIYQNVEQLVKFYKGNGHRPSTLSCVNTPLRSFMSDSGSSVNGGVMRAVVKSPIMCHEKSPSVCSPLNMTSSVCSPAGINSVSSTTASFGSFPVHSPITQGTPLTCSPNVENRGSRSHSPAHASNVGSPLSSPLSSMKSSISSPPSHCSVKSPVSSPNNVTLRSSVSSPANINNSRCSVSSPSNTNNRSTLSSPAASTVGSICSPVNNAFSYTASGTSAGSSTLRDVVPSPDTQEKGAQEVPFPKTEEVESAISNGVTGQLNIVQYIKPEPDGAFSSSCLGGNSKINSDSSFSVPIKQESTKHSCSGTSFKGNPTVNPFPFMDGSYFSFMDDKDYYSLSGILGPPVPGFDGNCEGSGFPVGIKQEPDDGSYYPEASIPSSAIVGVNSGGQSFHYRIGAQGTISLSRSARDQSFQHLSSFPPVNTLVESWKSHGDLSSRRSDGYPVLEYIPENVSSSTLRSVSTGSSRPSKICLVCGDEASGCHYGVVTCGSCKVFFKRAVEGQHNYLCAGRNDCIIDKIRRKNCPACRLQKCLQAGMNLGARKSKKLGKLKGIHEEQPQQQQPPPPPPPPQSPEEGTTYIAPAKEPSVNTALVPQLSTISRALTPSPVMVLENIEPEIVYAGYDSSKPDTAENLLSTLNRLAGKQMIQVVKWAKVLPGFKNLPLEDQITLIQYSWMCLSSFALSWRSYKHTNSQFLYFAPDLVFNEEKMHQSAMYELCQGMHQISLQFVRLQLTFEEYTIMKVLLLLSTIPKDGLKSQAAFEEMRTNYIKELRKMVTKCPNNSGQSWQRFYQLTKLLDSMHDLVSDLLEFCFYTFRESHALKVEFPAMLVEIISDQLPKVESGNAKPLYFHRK
The test can be described thus: human MR NH Pro assay (PathHunter Protein:Protein interaction assay), MR antagonist activity. Format: cell-based. The note with it: PathHunter CHO-K1 cells overexpressing human MR; aldosterone about 0.3 nM; 6 hours at 37° C.; luminescence; read-out: Primary Assay IP rating (IP = inflection point for a given dose-response titration curve). In a few lines:
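PathHunter enzyme-complementation assay in cells of full-length human MR recruitment of a coactivator peptide, run in antagonist mode against aldosterone at about 0.3 to 1.0 nM final. Compounds are in a 10-point, 1:3 series from a 4.4 mM top. Incubation is 6 h at 37° C, then detection reagent for 1 h at RT, with a luminescence read-out.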
On to `CCC(c1ccc(Cl)cc1)(c1nnc(C(F)(F)F)o1)n1ccc2c(NS(C)(=O)=O)cccc21` (centres unmarked) [Compound 69, N-(1-{1-(4-chlorophenyl)-1-[5-(trifluoromethyl)-1,3,4-oxadiazol-2-yl]propyl}-1H-indol-4-yl)methanesulfonamide], for which the IC50 lay within 100 to 500 nM. As for `CCC(/C=C/C#N)(c1ccc(Cl)cc1)n1ncc2c(NS(C)(=O)=O)cccc21` (centres unmarked) [Compound 129, (E)-N-(1-(3-(4-chlorophenyl)-1-cyanopent-1-en-3-yl)-1H-indazol-4-yl)methanesulfonamide], the IC50 is below 100 nM. Regarding `CCC(/C=C/C#N)(c1ccc(Cl)cc1)n1ncc2c(N)cc(F)cc21` (centres unmarked) [Compound 134, (E)-4-(4-amino-6-fluoro-1H-indazol-1-yl)-4-(4-chlorophenyl)hex-2-enenitrile], the IC50 lay in the range of 100 to 500 nM. The value for `CCC(c1ccc(Cl)cc1)(c1noc(-c2ccc(Cl)cc2)n1)n1ccc2c(NS(C)(=O)=O)cccc21` (centres unmarked) [Compound 60, N-(1-{1-(4-chlorophenyl)-1-[5-(4-chlorophenyl)-1,2,4-oxadiazol-3-yl]propyl}-1H-indol-4-yl)methanesulfonamide] was below 100 nM; that for `CCC(C(C)=O)(c1ccc(Cl)cc1)n1ccc2c(NS(C)(=O)=O)cccc21` (centres unmarked) [Compound 99, N-(1-(3-(4-chlorophenyl)-2-oxopentan-3-yl)-1H-indol-4-yl)methanesulfonamide] was below 100 nM. The figure for `CCC(c1ccc(Cl)cc1)(n1ncc2c(NS(=O)(=O)N(C)C)cccc21)C(C)(C)O` (centres unmarked) [Compound 95, 3-(1-(3-(4-chlorophenyl)-2-hydroxy-2-methylpentan-3-yl)-1H-indazol-4-yl)-1,1-dimethyl-sulfonylurea] is 100 to 500 nM; for `CCC(CCC(C)=O)(c1ccc(Cl)cc1)n1ncc2c(NS(C)(=O)=O)cccc21` (centres unmarked) [Compound 172, N-(1-(3-(4-chlorophenyl)-6-oxoheptan-3-yl)-1H-indazol-4-yl)methanesulfonamide] it is below 100 nM; for `CCC(c1ccc(Cl)cc1Cl)(C(C)O)n1ccc2c(NS(C)(=O)=O)cccc21` (centres unmarked) [Compound 110, N-(1-(3-(2,4-dichlorophenyl)-2-hydroxypentan-3-yl)-1H-indol-4-yl)methanesulfonamide] it is below 100 nM. On to `CCC(c1ccc(Cl)cc1)(c1nnc(-c2ccc(C(F)(F)F)cc2)o1)n1ccc2c(NS(C)(=O)=O)cccc21` (centres unmarked) [Compound 73, N-{1-[1-(4-chlorophenyl)-1-{5-[4-(trifluoromethyl)phenyl]-1,3,4-oxadiazol-2-yl}propyl]-1H-indol-4-yl}methanesulfonamide], for which the IC50 was in the range of 100 to 500 nM.

For `CCC(C(=O)NCCOC)(c1ccc(Cl)cc1)n1ccc2c(NS(C)(=O)=O)cccc21` (centres unmarked) [Compound 42, 2-(4-chlorophenyl)-N-(2-methoxyethyl)-2-{4-[(methylsulfonyl)amino]-1H-indol-1-yl}butanamide], the IC50 is 500 to 5000 nM. The figure for `COC(=O)C(c1ccc(F)cc1Cl)n1ccc2ccc(Cl)cc21` (centres unmarked) [Compound 14, methyl (2-chloro-4-fluorophenyl)(6-chloro-1H-indol-1-yl)acetate] is 500 to 5000 nM; for `CCC(C(=O)NCC#N)(c1ccc(Cl)cc1)n1ccc2c(NS(C)(=O)=O)cccc21` (centres unmarked) [Compound 149, 2-(4-chlorophenyl)-N-(cyanomethyl)-2-(4-(methylsulfonamido)-1H-indol-1-yl)butanamide] it is below 100 nM; for `CCC(c1ccc(Cl)cc1)(n1ccc2c(NS(C)(=O)=O)cc(F)cc21)C(C)(C)O` (single isomer, unassigned) [Compound 90, N-(1-(3-(4-chlorophenyl)-2-hydroxy-2-methylpentan-3-yl)-6-fluoro-1H-indol-4-yl)methane sulfonamide] it is below 100 nM. For the molecule `CCC(CCO)(c1ccc(Cl)cc1)n1ccc2c(NS(C)(=O)=O)cccc21` (single isomer, unassigned) [Compound 161, N-(1-(3-(4-Chlorophenyl)-1-hydroxypentan-3-yl)-1H-indol-4-yl)methanesulfonamide], the IC50 was below 100 nM.

(Values after patent US8933113B2 (Merck Sharp & Dohme Corp., priority 2011, dated 2015).)
